Legend:
[1] = target: T1, PKCζ (Homo sapiens, UniProt Q05513); experiment: KinaseProfiler selectivity: PKCζ; format: biochemical
T1 construct: purchased Millipore Co. Ltd. (KinaseProfiler service)
Procedure: (§1) […]; The selectivity of JTE-052 for other kinases was assessed using KinaseProfiler™ (Millipore Co. Ltd.). […].

[2] = target: T2, SAPK2a (Homo sapiens, UniProt Q16539); experiment: KinaseProfiler selectivity: SAPK2a; format: biochemical
T2 construct: purchased Millipore Co. Ltd. (KinaseProfiler service)
Procedure: as §1

[3] = target: T3, MAPKAP-K2 (Homo sapiens, UniProt P49137); experiment: KinaseProfiler selectivity: MAPKAP-K2; format: biochemical
T3 construct: purchased Millipore Co. Ltd. (KinaseProfiler service)
Procedure: as §1

[4] = target: T4, CHK1 (Homo sapiens, UniProt O14757); experiment: KinaseProfiler selectivity: CHK1; format: biochemical
T4 construct: purchased Millipore Co. Ltd. (KinaseProfiler service)
T4 sequence (O14757 whole entry, species assumed): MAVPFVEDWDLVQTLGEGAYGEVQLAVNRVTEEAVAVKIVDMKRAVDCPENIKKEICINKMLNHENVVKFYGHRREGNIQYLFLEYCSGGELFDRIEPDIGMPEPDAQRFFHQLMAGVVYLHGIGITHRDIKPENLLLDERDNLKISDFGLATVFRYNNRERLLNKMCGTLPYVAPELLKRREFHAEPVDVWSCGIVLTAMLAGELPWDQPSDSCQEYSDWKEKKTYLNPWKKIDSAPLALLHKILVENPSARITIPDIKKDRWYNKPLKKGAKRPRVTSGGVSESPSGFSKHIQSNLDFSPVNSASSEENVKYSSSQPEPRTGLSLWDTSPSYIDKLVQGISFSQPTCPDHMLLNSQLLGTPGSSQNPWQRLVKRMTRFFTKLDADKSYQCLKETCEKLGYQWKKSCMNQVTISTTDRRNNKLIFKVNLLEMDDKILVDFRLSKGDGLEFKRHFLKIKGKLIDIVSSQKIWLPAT
Procedure: as §1

[5] = target: T5, ROCK-II (Homo sapiens, UniProt O75116); experiment: KinaseProfiler selectivity: ROCK-II; format: biochemical
T5 construct: purchased Millipore Co. Ltd. (KinaseProfiler service)
Procedure: as §1

[6] = target: T6, JNK3 (Homo sapiens, UniProt P53779); experiment: KinaseProfiler selectivity: JNK3; format: biochemical
T6 construct: purchased Millipore Co. Ltd. (KinaseProfiler service)
Procedure: as §1

[7] = system: kinases in KinaseProfiler; experiment: KinaseProfiler panel as a whole (selectivity for other kinases); format: biochemical; settings: concentration of 1,000 nM
Procedure: as §1

[8] = target: T7, JNK2α2 (Homo sapiens, UniProt P45984); experiment: KinaseProfiler selectivity: JNK2α2; format: biochemical
T7 construct: purchased Millipore Co. Ltd. (KinaseProfiler service)
Procedure: as §1

[9] = target: T8, cKit (Homo sapiens, UniProt P10721); experiment: KinaseProfiler selectivity: cKit; format: biochemical
T8 construct: purchased Millipore Co. Ltd. (KinaseProfiler service)
Procedure: as §1

[10] = system: rat collagen-induced arthritis model; experiment: Collagen-induced arthritis in rats; format: in vivo, Lewis rats
Procedure: CIA was induced in rats as previously described with some modifications. Briefly, type II collagen (Collagen Research Center, Saitama, Japan) was dissolved in 0.01 M acetic acid at 2 mg/mL, and the solution was emulsified in an equal volume of Freund’s incomplete adjuvant (Difco Laboratories, Detroit, MI). Lewis rats were immunized with 1 mL of the emulsion (1 mg of type II collagen) via ten intradermal injections on the back under anesthesia. The rats were then challenged with 0.2 mL of the emulsion injected into the base of the tail on day 8 under anesthesia. The test drugs were given orally once daily from day 1 to day 21 (preventive administration) or from day 15 to day 28 (therapeutic administration). After arthritis induction, the hind paw volume was measured by a water displacement method using a plethysmometer (Muromachi Kikai Co. Ltd., Tokyo, Japan). On day 22 or day 29, the rats were euthanized, and their hind paws were excised and X-rayed or processed for histological evaluation. Radiographs of the right hindlimbs were taken using a microfocal cone-beam X-ray CT scanner (MCT-CB100MF; Hitachi Medical Corporation, Tokyo, Japan). The severity of bone destruction was scored on a 3-point scale ranging from 0 to 2 for the following five joints: second metatarsal—second intertarsal joint, third metatarsal—third intertarsal joint, talus—central intertarsal joint, calcaneus—fourth intertarsal joint, and astragalo—tibial joint. For histological analysis, the formalin-fixed left hindlimbs were sectioned and stained with hematoxylin and eosin. The histology of the tarsal joints was evaluated by assessing the following parameters defined in the preliminary examination: inflammatory cell infiltration, synovial cell hyperplasia, cartilage destruction, and bone destruction. The severity of each histological change was scored on a 5-point scale ranging from 0 to 4. (Score 0: normal; Score 1: minimal, solitary (and very small) lesion; Score 2: slight, focal (and small) lesion; Score 3: moderate, scattered lesion; and Score 4: severe, extensive lesion).
. The hind paw volume (a) and body weight (b) were measured periodically. Images of hematoxylin and eosin staining (c) and radiographs of hindlimbs (e) are shown. Histological change (d) and radiographical change (f) were scored. The results are expressed as mean ± SD. ^# p < 0.05, ^## p < 0.01, versus vehicle by the Steel test
. The hind paw volume (a) and body weight (b) were measured periodically. Images of hematoxylin and eosin staining (c) and radiographs of hindlimbs (e) are shown. Histological change (d) and radiographical change (f) were scored. The results are expressed as mean ± SD. *p < 0.05, **p < 0.01, versus vehicle by Dunnett’s test. ^# p < 0.05, ^## p < 0.01, versus vehicle by the Steel test

[11] = target: T9, EGFR (Homo sapiens, UniProt P00533); experiment: KinaseProfiler selectivity: EGFR; format: biochemical
T9 construct: purchased Millipore Co. Ltd. (KinaseProfiler service)
Procedure: as §1

[12] = target: T10, IR (Homo sapiens, UniProt P06213); experiment: KinaseProfiler selectivity: IR; format: biochemical
T10 construct: purchased Millipore Co. Ltd. (KinaseProfiler service)
T10 sequence (P06213 28-1382): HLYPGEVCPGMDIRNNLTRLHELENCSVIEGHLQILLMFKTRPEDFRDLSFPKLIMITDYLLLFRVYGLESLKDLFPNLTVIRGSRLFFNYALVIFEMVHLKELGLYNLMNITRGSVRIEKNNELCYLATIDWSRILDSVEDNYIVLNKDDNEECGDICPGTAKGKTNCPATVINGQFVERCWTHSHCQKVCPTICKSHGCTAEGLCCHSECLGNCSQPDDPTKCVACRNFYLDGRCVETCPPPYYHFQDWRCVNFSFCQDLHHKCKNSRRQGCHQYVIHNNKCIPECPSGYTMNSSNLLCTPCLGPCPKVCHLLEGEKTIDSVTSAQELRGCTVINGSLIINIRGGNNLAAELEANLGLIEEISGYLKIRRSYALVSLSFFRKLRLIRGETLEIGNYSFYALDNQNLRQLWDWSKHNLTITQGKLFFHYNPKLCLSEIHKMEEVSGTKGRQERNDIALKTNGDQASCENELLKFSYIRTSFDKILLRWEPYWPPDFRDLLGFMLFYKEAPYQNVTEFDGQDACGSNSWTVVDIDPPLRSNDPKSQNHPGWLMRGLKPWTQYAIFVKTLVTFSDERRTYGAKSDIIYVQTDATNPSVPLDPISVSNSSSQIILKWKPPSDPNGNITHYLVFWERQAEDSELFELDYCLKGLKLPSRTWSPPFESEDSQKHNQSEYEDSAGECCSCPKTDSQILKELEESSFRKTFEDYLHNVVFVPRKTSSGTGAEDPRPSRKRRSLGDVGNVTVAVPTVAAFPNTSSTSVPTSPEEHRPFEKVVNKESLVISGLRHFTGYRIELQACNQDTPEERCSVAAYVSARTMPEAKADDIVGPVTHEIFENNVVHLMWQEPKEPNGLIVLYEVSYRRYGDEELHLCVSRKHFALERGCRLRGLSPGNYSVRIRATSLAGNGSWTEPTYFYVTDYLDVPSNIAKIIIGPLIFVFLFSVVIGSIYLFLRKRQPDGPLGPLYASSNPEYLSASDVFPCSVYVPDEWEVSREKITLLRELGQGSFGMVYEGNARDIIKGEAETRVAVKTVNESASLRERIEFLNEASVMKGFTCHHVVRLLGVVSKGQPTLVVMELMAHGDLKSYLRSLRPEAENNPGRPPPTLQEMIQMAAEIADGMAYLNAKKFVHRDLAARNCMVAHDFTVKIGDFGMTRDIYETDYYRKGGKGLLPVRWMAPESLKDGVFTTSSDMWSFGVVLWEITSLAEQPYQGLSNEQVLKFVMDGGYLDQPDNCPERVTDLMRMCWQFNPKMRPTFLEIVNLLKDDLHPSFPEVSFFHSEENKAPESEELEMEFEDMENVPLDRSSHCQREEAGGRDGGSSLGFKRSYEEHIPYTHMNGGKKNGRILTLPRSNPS
Procedure: as §1

[13] = target: T11, PDGFRα (Homo sapiens, UniProt P16234); experiment: KinaseProfiler selectivity: PDGFRα; format: biochemical
T11 construct: purchased Millipore Co. Ltd. (KinaseProfiler service)
Procedure: as §1

[14] = target: T12, Tie2 (Homo sapiens, UniProt Q02763); experiment: KinaseProfiler selectivity: Tie2; format: biochemical
T12 construct: purchased Millipore Co. Ltd. (KinaseProfiler service)
Procedure: as §1

[15] = target: T13, PDK1 (Homo sapiens, UniProt O15530); experiment: KinaseProfiler selectivity: PDK1; format: biochemical
T13 construct: purchased Millipore Co. Ltd. (KinaseProfiler service)
T13 sequence (O15530 whole entry): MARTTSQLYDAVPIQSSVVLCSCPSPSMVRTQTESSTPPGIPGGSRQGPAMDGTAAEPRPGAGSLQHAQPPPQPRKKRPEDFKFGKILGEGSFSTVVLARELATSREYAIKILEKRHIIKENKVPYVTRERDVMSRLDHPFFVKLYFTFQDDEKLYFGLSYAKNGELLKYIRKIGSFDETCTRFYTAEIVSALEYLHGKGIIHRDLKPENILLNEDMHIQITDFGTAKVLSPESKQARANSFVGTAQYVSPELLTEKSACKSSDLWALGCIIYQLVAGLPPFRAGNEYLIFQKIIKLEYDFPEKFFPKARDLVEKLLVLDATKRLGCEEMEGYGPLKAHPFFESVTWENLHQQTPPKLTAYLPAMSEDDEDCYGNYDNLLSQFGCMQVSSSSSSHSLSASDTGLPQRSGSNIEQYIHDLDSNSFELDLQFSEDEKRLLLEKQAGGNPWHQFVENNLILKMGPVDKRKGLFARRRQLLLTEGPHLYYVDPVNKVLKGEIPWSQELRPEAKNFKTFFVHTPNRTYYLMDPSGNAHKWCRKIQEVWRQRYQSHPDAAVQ
Procedure: as §1

[16] = target: T14, FGFR3 (Homo sapiens, UniProt P22607); experiment: KinaseProfiler selectivity: FGFR3; format: biochemical
T14 construct: purchased Millipore Co. Ltd. (KinaseProfiler service)
Procedure: as §1

[17] = target: T15, ZAP-70 (Homo sapiens, UniProt P43403); experiment: KinaseProfiler selectivity: ZAP-70; format: biochemical
T15 construct: purchased Millipore Co. Ltd. (KinaseProfiler service)
Procedure: as §1

[18] = target: T16, MAPK2 (Homo sapiens, UniProt P28482); experiment: KinaseProfiler selectivity: MAPK2; format: biochemical
T16 construct: purchased Millipore Co. Ltd. (KinaseProfiler service)
Procedure: as §1

[19] = target: T17, PKBα (Homo sapiens, UniProt P31749); experiment: KinaseProfiler selectivity: PKBα; format: biochemical
T17 construct: purchased Millipore Co. Ltd. (KinaseProfiler service)
T17 sequence (P31749 whole entry, species assumed): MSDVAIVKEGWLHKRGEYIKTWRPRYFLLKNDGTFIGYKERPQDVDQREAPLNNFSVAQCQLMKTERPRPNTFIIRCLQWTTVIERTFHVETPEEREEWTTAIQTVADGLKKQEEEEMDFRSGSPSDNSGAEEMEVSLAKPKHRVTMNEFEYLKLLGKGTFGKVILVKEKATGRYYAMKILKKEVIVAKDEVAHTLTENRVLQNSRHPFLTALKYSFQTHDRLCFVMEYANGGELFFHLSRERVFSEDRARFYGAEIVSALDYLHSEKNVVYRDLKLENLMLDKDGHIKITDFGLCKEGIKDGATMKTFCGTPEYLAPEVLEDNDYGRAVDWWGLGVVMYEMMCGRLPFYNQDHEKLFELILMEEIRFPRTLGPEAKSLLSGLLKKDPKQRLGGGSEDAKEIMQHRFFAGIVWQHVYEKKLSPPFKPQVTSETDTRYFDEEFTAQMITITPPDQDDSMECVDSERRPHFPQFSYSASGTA
Procedure: as §1

[20] = target: T18, p70S6 K (Homo sapiens, UniProt P23443); experiment: KinaseProfiler selectivity: p70S6 K; format: biochemical
T18 construct: purchased Millipore Co. Ltd. (KinaseProfiler service)
Procedure: as §1

[21] = target: T19, Met (Homo sapiens, UniProt P08581); experiment: KinaseProfiler selectivity: Met; format: biochemical
T19 construct: purchased Millipore Co. Ltd. (KinaseProfiler service)
T19 sequence (P08581 25-1390): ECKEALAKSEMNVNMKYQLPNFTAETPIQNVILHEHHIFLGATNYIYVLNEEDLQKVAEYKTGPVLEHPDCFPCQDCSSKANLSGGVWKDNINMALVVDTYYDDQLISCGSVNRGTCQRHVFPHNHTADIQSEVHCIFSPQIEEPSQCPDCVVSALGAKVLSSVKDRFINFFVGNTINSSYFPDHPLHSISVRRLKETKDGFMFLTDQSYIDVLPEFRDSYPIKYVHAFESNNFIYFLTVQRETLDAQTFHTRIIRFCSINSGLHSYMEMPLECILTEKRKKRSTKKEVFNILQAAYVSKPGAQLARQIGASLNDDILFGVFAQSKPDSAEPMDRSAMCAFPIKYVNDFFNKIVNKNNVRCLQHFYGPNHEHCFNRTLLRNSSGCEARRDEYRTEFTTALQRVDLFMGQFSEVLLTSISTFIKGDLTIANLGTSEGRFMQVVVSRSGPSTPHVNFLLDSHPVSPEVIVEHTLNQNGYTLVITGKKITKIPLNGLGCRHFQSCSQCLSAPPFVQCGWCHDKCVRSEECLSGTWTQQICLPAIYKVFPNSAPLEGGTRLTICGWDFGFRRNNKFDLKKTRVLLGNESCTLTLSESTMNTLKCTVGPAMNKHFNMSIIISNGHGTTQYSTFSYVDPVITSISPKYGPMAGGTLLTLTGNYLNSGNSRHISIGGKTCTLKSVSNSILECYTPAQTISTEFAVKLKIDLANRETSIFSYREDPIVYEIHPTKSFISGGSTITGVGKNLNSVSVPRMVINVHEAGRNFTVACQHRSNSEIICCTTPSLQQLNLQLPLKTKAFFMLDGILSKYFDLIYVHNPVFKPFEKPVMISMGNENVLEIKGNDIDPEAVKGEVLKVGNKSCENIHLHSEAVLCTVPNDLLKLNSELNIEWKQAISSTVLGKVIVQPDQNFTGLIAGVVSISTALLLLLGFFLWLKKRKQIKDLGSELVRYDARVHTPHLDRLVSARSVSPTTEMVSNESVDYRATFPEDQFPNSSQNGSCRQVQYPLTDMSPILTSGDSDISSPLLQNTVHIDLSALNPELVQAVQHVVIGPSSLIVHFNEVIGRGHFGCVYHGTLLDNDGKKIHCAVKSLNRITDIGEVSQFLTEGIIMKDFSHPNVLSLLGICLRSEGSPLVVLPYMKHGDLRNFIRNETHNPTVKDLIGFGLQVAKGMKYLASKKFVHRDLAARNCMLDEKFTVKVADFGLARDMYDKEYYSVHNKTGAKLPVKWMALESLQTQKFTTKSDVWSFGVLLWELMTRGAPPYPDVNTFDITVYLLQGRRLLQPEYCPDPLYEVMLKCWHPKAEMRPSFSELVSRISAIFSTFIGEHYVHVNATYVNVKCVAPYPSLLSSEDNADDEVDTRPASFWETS
Procedure: as §1

[22] = target: T20, Fyn (Homo sapiens, UniProt P06241); experiment: KinaseProfiler selectivity: Fyn; format: biochemical
T20 construct: purchased Millipore Co. Ltd. (KinaseProfiler service)
Procedure: as §1

[23] = system: IL-2-induced IFN-γ production; experiment: IL-2-induced IFN-γ production in mice; format: in vivo, DBA/1J mice; settings: Mus musculus, po
Procedure: DBA/1J mice were dosed once via oral gavage with compounds. At 1 or 6 h after compound administration, the mice were injected intraperitoneally with 2 μg of recombinant mouse IL-2 and 10 μg of biotinylated anti-mouse IFN-γ capture antibody. After 6 h, the mice were euthanized, and blood was collected. Serum IFN-γ was quantified using a Mouse IFN-γ In Vivo Capture Assay Set (BD Biosciences).
After 1 or 6 h, they were injected with IL-2 and anti-mouse IFN-γ capture antibody. At 6 h after the injection, blood samples were collected, and the serum IFN-γ levels were measured.

[24] = target: T21, PKCγ (Homo sapiens, UniProt P05129); experiment: KinaseProfiler selectivity: PKCγ; format: biochemical
T21 construct: purchased Millipore Co. Ltd. (KinaseProfiler service)
Procedure: as §1

[25] = target: T22, CSK (Homo sapiens, UniProt P41240); experiment: KinaseProfiler selectivity: CSK; format: biochemical
T22 construct: purchased Millipore Co. Ltd. (KinaseProfiler service)
Procedure: as §1

T1 sequence (Q05513 whole entry): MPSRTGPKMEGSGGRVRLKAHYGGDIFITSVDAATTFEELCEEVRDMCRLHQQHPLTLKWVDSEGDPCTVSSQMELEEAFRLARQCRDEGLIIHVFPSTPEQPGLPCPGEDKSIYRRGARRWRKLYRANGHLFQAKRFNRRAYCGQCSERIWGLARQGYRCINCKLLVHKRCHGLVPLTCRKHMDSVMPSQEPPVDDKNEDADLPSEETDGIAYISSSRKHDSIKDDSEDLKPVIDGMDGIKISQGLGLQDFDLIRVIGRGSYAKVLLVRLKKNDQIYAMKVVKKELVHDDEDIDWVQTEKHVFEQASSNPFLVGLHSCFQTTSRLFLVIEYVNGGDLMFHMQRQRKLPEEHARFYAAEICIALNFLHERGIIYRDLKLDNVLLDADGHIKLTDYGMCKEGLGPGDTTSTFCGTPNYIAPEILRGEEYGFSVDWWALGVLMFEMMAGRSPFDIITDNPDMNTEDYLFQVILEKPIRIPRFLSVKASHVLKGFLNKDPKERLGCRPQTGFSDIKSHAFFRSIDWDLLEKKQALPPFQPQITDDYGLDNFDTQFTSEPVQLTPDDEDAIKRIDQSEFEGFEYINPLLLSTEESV

C[C@H]1CN(C(=O)CC#N)[C@]12CCN(c1ncnc3[nH]ccc13)C2 [JTE-052]
IC50 [1]: > 1000 nM | IC50 [2]: > 1000 nM | IC50 [3]: > 1000 nM | IC50 [4]: > 1000 nM | IC50 [5]: 141 nM | IC50 [6]: > 1000 nM | inhibition of other kinases in KinaseProfiler [7]: did not inhibit any of the kinases even at the concentration of 1,000 nM, except for ROCK-II | IC50 [8]: > 1000 nM | IC50 [9]: > 1000 nM | effect on bone and cartilage destruction (radiographic, histological), preventive administration ([10]; oral once daily from day 1): inhibited radiographic and histological changes of bone destruction and cartilage destruction | effect on hind paw swelling and joint inflammation, preventive administration ([10]; oral once daily from day 1, JTE-052 0.1, 1, 10 mg/kg, MTX 0.3 mg/kg): prevented the development of hind paw swelling | IC50 [11]: > 1000 nM | IC50 [12]: > 1000 nM | IC50 [13]: > 1000 nM | IC50 [14]: > 1000 nM | IC50 [15]: > 1000 nM | IC50 [16]: > 1000 nM | IC50 [17]: > 1000 nM | IC50 [18]: > 1000 nM | IC50 [19]: > 1000 nM | IC50 [20]: > 1000 nM | IC50 [21]: > 1000 nM | IC50 [22]: > 1000 nM | ED50 ([23]; dosed 1 h prior to IL-2 injection): 0.24 mg/kg | ED50 ([23]; dosed 6 h prior to IL-2 injection): 1.3 mg/kg | IC50 [24]: > 1000 nM | IC50 [25]: > 1000 nM

— PMC4286029 (Inflammation Research, 2014)
